These results are taken from patent US20110159095A1, “TREATMENT OF ADRENAL INSUFFICIENCY” (priority 2008, published 2011).

This assay has as its system HPA axis. In words: Plasma ACTH in dexamethasone-suppressed healthy subjects. In kind it is in vivo, human. The following applies: 1 mg oral dexamethasone repeated; confirms suppression of HPA axis.

Protocol: Plasma ACTH levels were taken at 2155 h on Day 1 and on 0600 h on Day 2 whilst serum cortisol levels were taken prior to ingestion of the drug and were repeated every 30 minutes for the first four hours, then at 0200 h, 0300 h, 0400 h, 0500 h, 0600 h, 0800 h, 1000 h, 1300 h, 1600 h, 2200 h.
Assays: Serum cortisol was measured using the Bayer Advia Centaur Automated Immunoassay System. The inter-assay coefficient variation was 7% at 200 nmol/l (7.2 μg/dl), and 8% at 1,050 nmol/l (38 μg/dl). Plasma ACTH was measured using the DPC Immulite 2000 assay. Plasma 17OH-progesterone was measured using Liquid Chromatography Tandem Mass Spectrometry at Quest Diagnostics (Nichols Institute, San Juan Capistrano, Calif., USA) with an inter-assay coefficient of variation of 8.2%.

As to `C[C@@H]1C[C@H]2[C@@H]3CCC4=CC(=O)C=C[C@]4(C)[C@@]3(F)[C@@H](O)C[C@]2(C)[C@@]1(O)C(=O)CO` [dexamethasone], the “ACTH values below the assay lower limit” value turned out to be 98%.
